According to paper PMC3527104 (Bioorganic & medicinal chemistry, 2012):

How the values were obtained:
α7-nAChRs [1] = target: T1, α7-nAChRs (Mus musculus, UniProt P49582); conditions: CD1 mice, i.v.; frontal cortex, thalamus, striatum, hippocampus; post-injection
α7-nAChRs [2] = target: T1, α7-nAChRs; assay: blocking dissection study with PHA543613 in mice; conditions: PHA543613 0.5 mg/kg s.c., 15 min before tracer; 90 min after tracer

T1 sequence (P49582 23-502): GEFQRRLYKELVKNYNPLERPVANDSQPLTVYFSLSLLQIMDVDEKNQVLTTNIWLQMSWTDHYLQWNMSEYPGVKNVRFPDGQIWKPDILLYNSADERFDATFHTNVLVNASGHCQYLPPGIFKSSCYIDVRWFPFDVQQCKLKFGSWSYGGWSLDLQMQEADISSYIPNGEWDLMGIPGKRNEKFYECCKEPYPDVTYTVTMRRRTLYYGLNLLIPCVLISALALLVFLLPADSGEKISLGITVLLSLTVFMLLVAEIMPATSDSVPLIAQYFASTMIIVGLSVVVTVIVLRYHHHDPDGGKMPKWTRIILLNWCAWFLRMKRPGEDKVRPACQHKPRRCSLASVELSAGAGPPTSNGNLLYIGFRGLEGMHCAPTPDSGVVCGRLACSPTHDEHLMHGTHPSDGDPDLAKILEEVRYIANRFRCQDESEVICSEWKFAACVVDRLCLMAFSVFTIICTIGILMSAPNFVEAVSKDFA

Row | blockade of [^11C]rac-1 binding in the cerebellum (α7-nAChRs [2]) | inhibition of [^11C]rac-1 binding in hippocampus and frontal cortex (α7-nAChRs [2]) | Compound | time of peak radioactivity accumulation (α7-nAChRs [1]) [min]
1 |  |  | [11CH3]N1CC2CN(c3ccc(-c4ccc5[nH]ccc5c4)nc3)CC21 (racemic) [[^11C]rac-1, 5-(5-(6-[^11C]methyl-3,6-diazabicyclo[3.2.0]heptan-3-yl)pyridin-2-yl)-1H-indole] | 30
2 | minimal | significantly inhibited | O=C(N[C@H]1CN2CCC1CC2)c1cc2ccoc2cn1 [PHA543613] | 
